In patent US9687467B2, “Diagnosis and treatment of taxane-resistant cancers” (Children's Medical Center Corporation, priority 2011, dated 2017):

Tested on: A549 cells overexpressing miR-135a
Experiment: Xenograft of A549 cells stably overexpressing miR-135a, paclitaxel treatment
Assay type: in vivo, nude mice
Details: paclitaxel three times a week for 3 weeks
Method: A549 cells stably expressing either non-targeting premiR (A549-control) or premiR-135a (A549-miR-135a) were generated. (FIG. 8A) miR-135a expression level in A549-control and -miR-135a was determined and compared with A549 and A549TR cells using qRT-PCR analysis. *P<0.01. (FIG. 8B) Paclitaxel response of A549-control and A549-premiR-135a cells was determined using the MTT assay. (FIG. 8C) APC protein expression was examined using western blot analysis in A549-control and -premiR-135a cells. (FIG. 8D) A549-control and -premiR-135a cells were inoculated subcutaneously into the flanks of nude mice. Paclitaxel treatment was given three times a week for 3 weeks. The tumor size in each group was measured during the course of treatment and was calculated, relative to the size before treatment initiation. Each curve represents the average tumor growth±s.e.m. for 10 mice per group. **P<0.001 as determined by Wilcoxon's rank sum test.
The inventors subsequently investigated the role of miR-135a in paclitaxel sensitivity in vivo. […] As expected, miR-135a […] attenuated paclitaxel-induced cell death (FIG. 8B) and APC protein expression (FIG. 8C) relative to control transfected A549 cells in vitro. […] Paclitaxel treatment was given three times a week for 3 weeks, and tumor size in each group was monitored during the course of treatment. […]

CC(=O)O[C@H]1C(=O)[C@@]2(C)[C@H]([C@H](OC(=O)c3ccccc3)[C@]3(O)C[C@H](OC(=O)[C@H](O)[C@@H](NC(=O)c4ccccc4)c4ccccc4)C(C)=C1C3(C)C)[C@]1(OC(C)=O)CO[C@@H]1C[C@@H]2O [paclitaxel]
in vivo growth under paclitaxel exposure: not reduced
